What was measured:
P. syringae SelO = P. syringae SelO (Pseudomonas syringae group genomosp. 3, UniProt Q87VB1); test: X-ray crystal structure, […] Å; assay type: binding; details: active site, nucleotide flipped; Mg2+ and Ca2+ bound; pH 8; 20 °C
non-reducing SDS-PAGE = molecular target: the molecule itself; test: non-reducing SDS-PAGE

Sequence of P. syringae SelO (Q87VB1 whole entry): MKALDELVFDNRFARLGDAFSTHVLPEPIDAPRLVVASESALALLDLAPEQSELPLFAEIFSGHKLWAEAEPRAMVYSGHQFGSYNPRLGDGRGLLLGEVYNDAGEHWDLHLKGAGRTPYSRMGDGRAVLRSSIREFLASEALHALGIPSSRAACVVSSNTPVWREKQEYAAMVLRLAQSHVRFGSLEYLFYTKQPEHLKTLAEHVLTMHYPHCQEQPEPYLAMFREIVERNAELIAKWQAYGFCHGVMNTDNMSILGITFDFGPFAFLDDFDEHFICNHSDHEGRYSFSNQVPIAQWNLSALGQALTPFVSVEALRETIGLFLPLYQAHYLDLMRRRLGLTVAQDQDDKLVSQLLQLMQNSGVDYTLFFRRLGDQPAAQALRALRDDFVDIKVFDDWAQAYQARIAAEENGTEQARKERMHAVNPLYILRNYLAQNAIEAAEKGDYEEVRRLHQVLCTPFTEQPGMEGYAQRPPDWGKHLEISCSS

## Nc1ncnc2c1ncn2[C@@H]1O[C@H](COP(=O)(O)OP(=O)(O)NP(=O)(O)O)[C@@H](O)[C@H]1O [AMP-PNP]
P. syringae SelO
  X-ray crystal structure, 2.27 Å: bound to an ATP derivative AMP-PNP

B1: E. coli SelO (ydiU) C272A mutant (enzyme, UniProt P77649 1-478, looked up)
chain: MTLSFVTRWRDELPETYTALSPTPLNNARLIWHNTELANTLSIPSSLFKNGAGVWGGEALLPGMSPLAQVYSGHQFGVWAGQLGDGRGILLGEQLLADGTTMDWHLKGAGLTPYSRMGDGRAVLRSTIRESLASEAMHYLGIPTTRALSIVTSDSPVYRETAEPGAMLMRVAPSHLRFGHFEHFYYRRESEKVRQLADFAIRHYWSHLADDEDKYRLWFSDVVARTASLIAQWQTVGFAHGVMNTDNMSLLGLTLDYGPFGFLDDYEPGFIANHSDHQGRYSFDNQPAVALWNLQRLAQTLSPFVAVDALNEALDSYQQVLLTHYGERMRQKLGFMTEQKEDNALLNELFSLMARERSDYTRTFRMLSLTEQHSAASPLRDEFIDRAAFDDWFARYRGRLQQDEVSDSERQQLMQSVNPALVLRNWLAQRAIEAAEKGDMTELHRLHEALRNPFSDRDDDYVSRPPDWGKRLEVSCSS
modifications: intermolecular disulfide between the two copies (cysteine not named)
non-reducing SDS-PAGE
  stoichiometry N: 2
